Columns and labels:
[1] = tested on: rats with L5 spinal nerve ligation (SNL model); test: Spinal nerve ligation (L5) neuropathic pain model, mechanical threshold with von Frey filaments (Example 4); assay type: in vivo, rat; conditions: gabapentin 50 mg/kg i.p.
Source text: A total of 18 Sprague-Dawley (CD sub-strain) young adult (weight: 150-175 g) male rats were purchased from Harlan Sprague Dawley Company (Indianapolis, Ind.), Alabama colony. The rats were kept three per cage and had free access to food and water. Animals were kept in a room with a reversed light-dark cycle (light: 8:00 PM-8:00 AM) for 1 week before experimental manipulations. Ten rats were allocated to the present study. Eight rats were allocated to the study of Example 5, below.
(§1) The spinal nerve ligation (SNL) model of neuropathic pain was produced in all rats as described by Kim and Chung (Pain, 50, 355-363, 1992). Briefly, under gaseous anesthesia using halothane (3% for induction and 1.5% for maintenance) in oxygen, the left L5 spinal nerve was exposed by removing the paraspinal muscles and the transverse process of the L6 vertebra. The very proximal portion of the L5 spinal nerve was tightly ligated with 6-0 silk suture. The wounds were closed and anesthesia was discontinued. Rats were kept on a heated blanket until they had completely recovered from anesthesia.
OPC-14523 was dispersed in 0.5% tragacanth in distilled water at 20 mg/ml. It was administered as a oral injection in a dose of 100 mg/kg body weight. Gabapentin was prepared at 10 mg/ml in saline and was administered at 50 mg/kg body weight i.p. Gabapentin is a drug that was originally developed as an anticonvulsant but is now widely used as an analgesic for neuropathic pain (Abdi et al., Anesthesia & Analgesia 87:1360-1366 (1998)).
Ten rats were utilized in a Latin-square-design study comparing the activity of OPC-14523 and other compounds against neuropathic pain. Behavioral tests were conducted twice (1 day and 1 hour) before, as well as 1 and 4 days after, the neuropathic surgery. […] The ten rats were randomly divided into five groups of two rats each. […]
This procedure was repeated five times. […] The result was that all ten animals received each of the indicated five compounds in random order and then had mechanical thresholds determined at the indicated times.
Behavioral tests were conducted in a non-blind fashion. The foot withdrawal threshold to mechanical stimuli applied to the paw (mechanical threshold) was measured, as an indicator of mechanical sensitivity of the affected paw. The foot withdrawal threshold was measured using von Frey filaments. […] The mechanical thresholds were measured by using the “up-and-down” method (Chaplan et al., J. Neurosci. Methods 53(1):55-63, 1994), following the procedures described in previous studies (Park et al., Pain 87(2):171-179, 2000; Xie et al., J. Pain 2(5):270-278, 2001; Baik et al., J. Pain 4:212-221, 2003). […]

[2] = tested on: rats with L5 spinal nerve ligation (SNL model); test: Spinal nerve ligation (L5) neuropathic pain model, von Frey filaments, dose range (Example 5); assay type: in vivo, rat; conditions: gabapentin 100 mg/kg p.o.
Source text: as §1
Behavioral tests were conducted in a non-blind fashion. The foot withdrawal threshold to mechanical stimuli applied to the paw (mechanical threshold) was measured, as an indicator of mechanical sensitivity of the affected paw. The foot withdrawal threshold was measured using von Frey filaments. It is generally thought that von Frey filaments are more sensitive than electronic von Frey probes for measuring tactile stimulation. The mechanical thresholds were measured by using the “up-and-down” method (Chaplan et al., J. Neurosci. Methods 53(1):55-63, 1994), following the procedures described in previous studies (Park et al., Pain 87(2):171-179, 2000; Xie et al., J. Pain 2(5):270-278, 2001; Baik et al., J. Pain 4:212-221, 2003). In brief, rats were placed in a transparent plastic box on a metal wire mesh floor. To determine the threshold stiffness required for 50% paw withdrawal, a series of eight von Frey filaments with approximately equal logarithmic incremental (0.22) von Frey values (3.65, 3.87, 4.10, 4.31, 4.52, 4.74, 4.92, and 5.16) were used. Von Frey (VF) values are logarithmically related to gram (g) values (VF=log (10,000×g)). The chosen von Frey values are therefore equivalent to 0.45, 0.74, 1.26, 2.04, 3.31, 5.50, 8.32, and 14.45 in gram value, respectively. Starting with filament 4.31, von Frey filaments were applied perpendicularly to the ventral surface of the proximal part of the third or fourth toe for 2-3 seconds. Whenever a positive response to a stimulus occurred (paw withdrawal), the next smaller von Frey hair was applied. Whenever a negative response occurred, the next larger one was applied. The test was continued until the response of six stimuli after the first change in response had been obtained or the test had reached either end of the spectrum of the von Frey set.
The 50% threshold value was then calculated using Dixon's formula (Dixon, Ann. Rev. Phar. Tox. 20:441-462, 1980): 50% threshold=X+kd, where X is the value of the final von Frey hair used (in log units), k is the tabular value for the pattern of positive/negative responses, and d is the mean difference between stimuli in log units (0.22). In the cases where continuous positive or negative responses were observed all the way out to the end of the stimulus spectrum, values of 3.54 or 5.27 were assigned, respectively, by assuming a value of (−/+) 0.5 for k in these cases (Dixon, supra, 1980). Outcome of behavioral data were expressed as von Frey values (maximum range from 3.54 to 5.27) and plotted in a linear scale.
Data were expressed as the mean±standard errors of mean (SEM). Differences in mechanical thresholds at various times after injections were tested using two-way (time and group factors) analysis of variance (ANOVA), followed by the Duncan's post-hoc test for multiple comparisons. Statistical analyses were done using the SAS® software program (SAS Institute Inc, Cary, N.C.). Two-tailed p-values<0.05 were considered to be significant.
This experiment was conducted on 8 rats in a Latin-square design examining a dose response of OPC-14523. Gabapentin was prepared at 10 mg/ml in 0.5% tragacanth and administered at 100 mg/kg p.o. Behavioral tests were conducted in a blind fashion twice (1 day and 1 hour) before as well as 1 and 4 days after the neuropathic surgery. […] These 8 rats were randomly divided into 6 groups of 1-2 rats. […]

NCC1(CC(=O)O)CCCCC1 [Gabapentin, gabapentin, reference compound]
level of mechanical threshold increase relative to threshold prior to ligation [1]: about half of the mechanical threshold observed prior to the ligation | effect on mechanical threshold of the lesioned paw for foot withdrawals ([1]; 0.5-6 hours): significantly increased | effect on mechanical threshold of the lesioned paw for foot withdrawals [2]: significant increase

Source: patent US20070142396A1, “Treatment of pain with 1-[3-[4-(3-chlorophenyl)-1-piperazinyl]propyl]-5-methoxy-3,4-dihydro-2(1H)-quinolone or salt thereof” (Vela Pharmaceuticals, Inc., priority 2005, published 2007)
